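Step 1: Grow cells in 96-well plates. Step 2: Expose to compound for 48 hours at 5 concentrations. Step 3: Interpolate endpoints linearly; if unreached, use highest concentration. At the GI50, growth is halved. TGI is the concentration that stops growth completely.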
Columns and labels:
Test in all cases: DTP human tumour cell line panel, 48 h
NCI-H460 lung = test system: NCI-H460 lung
OVCAR-5 ovarian = test system: OVCAR-5 ovarian
LOX IMVI melanoma = test system: LOX IMVI melanoma
BT-549 breast = test system: BT-549 breast
786-0 renal = test system: 786-0 renal
NCI-H226 lung = test system: NCI-H226 lung
EKVX NSCLC = test system: EKVX NSCLC
DU-145 prostate = test system: DU-145 prostate
MALME-3M melanoma = test system: MALME-3M melanoma
HL-60(TB) leukemia = test system: HL-60(TB) leukemia
MDA-MB-435 = test system: MDA-MB-435
MDA-MB-231 breast = test system: MDA-MB-231 breast
SN12C renal = test system: SN12C renal
HOP-62 NSCLC = test system: HOP-62 NSCLC
NCI/ADR-RES ovarian = test system: NCI/ADR-RES ovarian
SK-OV-3 ovarian = test system: SK-OV-3 ovarian
NCI-H23 lung = test system: NCI-H23 lung
OVCAR-3 ovarian = test system: OVCAR-3 ovarian
KM12 colon = test system: KM12 colon
PC-3 prostate = test system: PC-3 prostate
MOLT-4 leukemia = test system: MOLT-4 leukemia
HT29 colon = test system: HT29 colon
HCC-2998 colon = test system: HCC-2998 colon
SNB-19 CNS = test system: SNB-19 CNS
HOP-92 NSCLC = test system: HOP-92 NSCLC
U251 CNS = test system: U251 CNS
UO-31 renal = test system: UO-31 renal
OVCAR-4 ovarian = test system: OVCAR-4 ovarian
RPMI-8226 leukemia = test system: RPMI-8226 leukemia
SK-MEL-28 melanoma = test system: SK-MEL-28 melanoma
M14 melanoma = test system: M14 melanoma
TK-10 renal = test system: TK-10 renal
SNB-75 CNS = test system: SNB-75 CNS
COLO 205 colon = test system: COLO 205 colon
K-562 leukemia = test system: K-562 leukemia
HCT-15 colon = test system: HCT-15 colon
SF-539 CNS = test system: SF-539 CNS
HS 578T breast = test system: HS 578T breast
UACC-257 melanoma = test system: UACC-257 melanoma
SR leukemia = test system: SR leukemia
SK-MEL-2 melanoma = test system: SK-MEL-2 melanoma
MCF7 breast = test system: MCF7 breast
UACC-62 melanoma = test system: UACC-62 melanoma
SF-268 CNS = test system: SF-268 CNS
SK-MEL-5 melanoma = test system: SK-MEL-5 melanoma
OVCAR-8 ovarian = test system: OVCAR-8 ovarian
HCT-116 colon = test system: HCT-116 colon
A498 renal = test system: A498 renal
T-47D breast = test system: T-47D breast
IGROV1 ovarian = test system: IGROV1 ovarian
RXF 393 renal = test system: RXF 393 renal
ACHN renal = test system: ACHN renal
A549 NSCLC = test system: A549 NSCLC
SF-295 CNS = test system: SF-295 CNS
NCI-H522 lung = test system: NCI-H522 lung
CCRF-CEM leukemia = test system: CCRF-CEM leukemia
SW-620 colon = test system: SW-620 colon

## CCCCCCCCCCCCCCCC(=O)Nc1ccn([C@@H]2O[C@H](CO)[C@@H](O)[C@@H]2C#N)c(=O)n1
NCI-H460 lung
  GI50: 2.38 µM
  TGI: 24.5 µM
OVCAR-5 ovarian
  GI50: 51.6 µM
  TGI: > 100 µM
LOX IMVI melanoma
  GI50: 10.2 µM
  TGI: 37.9 µM
BT-549 breast
  GI50: 34.9 µM
  TGI: > 100 µM
786-0 renal
  GI50: 10.1 µM
  TGI: > 100 µM
NCI-H226 lung
  GI50: 30.7 µM
  TGI: > 100 µM
EKVX NSCLC
  GI50: > 52.7 µM
  TGI: > 100 µM
DU-145 prostate
  GI50: 9.03 µM
  TGI: > 100 µM
MALME-3M melanoma
  GI50: 17.3 µM
  TGI: 60.4 µM
HL-60(TB) leukemia
  GI50: 21.1 µM
  TGI: > 100 µM
MDA-MB-435
  GI50: 39.5 µM
  TGI: > 100 µM
MDA-MB-231 breast
  GI50: 25.9 µM
  TGI: > 96.4 µM
SN12C renal
  GI50: 29.7 µM
  TGI: > 100 µM
HOP-62 NSCLC
  GI50: 20.5 µM
  TGI: > 100 µM
NCI/ADR-RES ovarian
  GI50: 18.4 µM
  TGI: > 100 µM
SK-OV-3 ovarian
  GI50: 45.6 µM
  TGI: > 100 µM
NCI-H23 lung
  GI50: 12 µM
  TGI: > 84.5 µM
OVCAR-3 ovarian
  GI50: > 100 µM
  TGI: > 100 µM
KM12 colon
  GI50: 33.7 µM
  TGI: > 100 µM
PC-3 prostate
  GI50: 35.9 µM
  TGI: > 100 µM
MOLT-4 leukemia
  TGI: 26.2 µM
HT29 colon
  GI50: 35.8 µM
  TGI: > 100 µM
HCC-2998 colon
  GI50: 14.5 µM
  TGI: > 100 µM
SNB-19 CNS
  GI50: 6.02 µM
  TGI: > 100 µM
HOP-92 NSCLC
  GI50: 5.52 µM
  TGI: > 100 µM
U251 CNS
  GI50: 20.8 µM
  TGI: > 100 µM
UO-31 renal
  GI50: 14.5 µM
  TGI: > 100 µM
OVCAR-4 ovarian
  GI50: 36.4 µM
  TGI: > 100 µM
RPMI-8226 leukemia
  GI50: 49.8 µM
  TGI: > 100 µM
SK-MEL-28 melanoma
  GI50: 33.1 µM
  TGI: > 100 µM
M14 melanoma
  GI50: 11.8 µM
  TGI: > 83.6 µM
TK-10 renal
  GI50: > 100 µM
  TGI: > 100 µM
SNB-75 CNS
  GI50: > 58.6 µM
  TGI: > 100 µM
COLO 205 colon
  GI50: 17.6 µM
  TGI: > 100 µM
K-562 leukemia
  GI50: 14.6 µM
  TGI: > 52.4 µM
HCT-15 colon
  GI50: 50.8 µM
  TGI: > 100 µM
SF-539 CNS
  GI50: > 100 µM
  TGI: > 100 µM
HS 578T breast
  GI50: > 100 µM
  TGI: > 100 µM
UACC-257 melanoma
  GI50: 46.3 µM
  TGI: > 100 µM
SR leukemia
  GI50: 8.01 µM
  TGI: 98.1 µM
SK-MEL-2 melanoma
  GI50: 42.3 µM
  TGI: > 100 µM
MCF7 breast
  GI50: 3.29 µM
  TGI: 30 µM
UACC-62 melanoma
  GI50: 17.2 µM
  TGI: > 100 µM
SF-268 CNS
  GI50: 30.4 µM
  TGI: > 100 µM
SK-MEL-5 melanoma
  GI50: 15.2 µM
  TGI: 28.8 µM
OVCAR-8 ovarian
  GI50: 15.4 µM
  TGI: > 100 µM
HCT-116 colon
  GI50: 4.77 µM
  TGI: > 80.6 µM
A498 renal
  GI50: > 82 µM
  TGI: > 100 µM
T-47D breast
  GI50: 33.2 µM
  TGI: > 88.7 µM
IGROV1 ovarian
  GI50: 33.9 µM
  TGI: > 100 µM
RXF 393 renal
  GI50: > 77.9 µM
  TGI: > 100 µM
ACHN renal
  GI50: 8.76 µM
  TGI: > 100 µM
A549 NSCLC
  GI50: 11.7 µM
  TGI: 30.3 µM
SF-295 CNS
  GI50: 21.5 µM
  TGI: > 100 µM
NCI-H522 lung
  GI50: 13.1 µM
  TGI: 33.3 µM
CCRF-CEM leukemia
  TGI: > 100 µM
SW-620 colon
  GI50: 26.7 µM
  TGI: > 100 µM

## COc1ccc2c(c1OC)OC[C@@H](C1=CC(=O)C=C(O)C1=O)C2
NCI-H460 lung
  TGI: 27.4 µM
OVCAR-5 ovarian
  TGI: 40 µM
LOX IMVI melanoma
  TGI: 13.1 µM
BT-549 breast
  TGI: 26 µM
786-0 renal
  TGI: 16.9 µM
NCI-H226 lung
  TGI: 46.7 µM
EKVX NSCLC
  TGI: 18.3 µM
DU-145 prostate
  TGI: 29.3 µM
MALME-3M melanoma
  TGI: 24.7 µM
HL-60(TB) leukemia
  TGI: 1.88 µM
MDA-MB-435
  TGI: 23.9 µM
MDA-MB-231 breast
  TGI: 10.4 µM
SN12C renal
  TGI: 37 µM
HOP-62 NSCLC
  TGI: 64.5 µM
NCI/ADR-RES ovarian
  TGI: 79.1 µM
SK-OV-3 ovarian
  TGI: 30.3 µM
NCI-H23 lung
  TGI: 33.8 µM
OVCAR-3 ovarian
  TGI: 26.3 µM
KM12 colon
  TGI: 27.5 µM
PC-3 prostate
  TGI: 26.8 µM
MOLT-4 leukemia
  TGI: 5.31 µM
HT29 colon
  TGI: 55.8 µM
HCC-2998 colon
  TGI: 32.3 µM
SNB-19 CNS
  TGI: 34.7 µM
HOP-92 NSCLC
  TGI: 4.12 µM
U251 CNS
  TGI: 24.5 µM
UO-31 renal
  TGI: 25.9 µM
OVCAR-4 ovarian
  TGI: 24.1 µM
RPMI-8226 leukemia
  TGI: 5.18 µM
SK-MEL-28 melanoma
  TGI: > 58.5 µM
M14 melanoma
  TGI: 26.8 µM
TK-10 renal
  TGI: 27.3 µM
SNB-75 CNS
  TGI: 23.6 µM
COLO 205 colon
  TGI: 43.3 µM
K-562 leukemia
  TGI: 11.8 µM
HCT-15 colon
  TGI: 31 µM
SF-539 CNS
  TGI: 26.8 µM
HS 578T breast
  TGI: 60.1 µM
UACC-257 melanoma
  TGI: 26.1 µM
SR leukemia
  TGI: 19.2 µM
SK-MEL-2 melanoma
  TGI: 29 µM
MCF7 breast
  TGI: 27 µM
UACC-62 melanoma
  TGI: 25.1 µM
SF-268 CNS
  TGI: 38.1 µM
SK-MEL-5 melanoma
  TGI: 27 µM
OVCAR-8 ovarian
  TGI: 69.3 µM
HCT-116 colon
  TGI: 17.4 µM
A498 renal
  TGI: 32.1 µM
T-47D breast
  TGI: 20.3 µM
IGROV1 ovarian
  TGI: 25.2 µM
RXF 393 renal
  TGI: 19.1 µM
ACHN renal
  TGI: 11.3 µM
A549 NSCLC
  TGI: 35.8 µM
SF-295 CNS
  TGI: 30.7 µM
NCI-H522 lung
  TGI: 8.9 µM
CCRF-CEM leukemia
  TGI: 3.81 µM
SW-620 colon
  TGI: 26.2 µM

From PubChem BioAssay (NCI)
